One test addresses T1, TLR7 (Homo sapiens, UniProt Q9NYK1).
T1 construct: PBL contain as a subpopulation plasmacytoid dendritic cells which are the natural interferon producing cells; endogenous in cells; host or cells: peripheral blood lymphocytes (PBL), containing plasmacytoid dendritic cells
T1 sequence (Q9NYK1 27-1049): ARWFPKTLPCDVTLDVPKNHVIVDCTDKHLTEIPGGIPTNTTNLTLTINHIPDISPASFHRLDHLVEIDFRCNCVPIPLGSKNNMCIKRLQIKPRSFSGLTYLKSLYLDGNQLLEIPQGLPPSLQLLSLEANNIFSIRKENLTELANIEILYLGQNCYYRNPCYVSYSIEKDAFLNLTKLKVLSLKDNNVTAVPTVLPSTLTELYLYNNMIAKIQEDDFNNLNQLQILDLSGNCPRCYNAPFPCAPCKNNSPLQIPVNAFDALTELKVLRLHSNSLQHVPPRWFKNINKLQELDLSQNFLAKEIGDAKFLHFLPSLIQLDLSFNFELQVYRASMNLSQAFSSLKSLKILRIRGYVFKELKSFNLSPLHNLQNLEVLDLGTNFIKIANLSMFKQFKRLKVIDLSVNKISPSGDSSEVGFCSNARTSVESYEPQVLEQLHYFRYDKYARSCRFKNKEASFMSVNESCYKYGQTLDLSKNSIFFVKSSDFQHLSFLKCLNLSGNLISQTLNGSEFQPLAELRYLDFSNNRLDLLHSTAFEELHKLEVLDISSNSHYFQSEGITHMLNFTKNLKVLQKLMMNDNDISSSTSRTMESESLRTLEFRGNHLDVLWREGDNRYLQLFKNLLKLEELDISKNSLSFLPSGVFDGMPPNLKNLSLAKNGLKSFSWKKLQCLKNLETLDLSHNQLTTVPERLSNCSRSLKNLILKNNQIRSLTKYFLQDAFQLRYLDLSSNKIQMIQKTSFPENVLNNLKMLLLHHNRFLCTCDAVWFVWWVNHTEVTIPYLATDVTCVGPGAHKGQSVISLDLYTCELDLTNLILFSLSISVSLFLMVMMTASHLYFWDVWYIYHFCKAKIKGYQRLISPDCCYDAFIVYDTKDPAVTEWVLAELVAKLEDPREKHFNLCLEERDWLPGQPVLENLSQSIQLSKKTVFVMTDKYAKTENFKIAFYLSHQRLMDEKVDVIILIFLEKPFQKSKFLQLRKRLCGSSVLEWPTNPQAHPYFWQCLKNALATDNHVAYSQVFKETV
As to the kind of experiment: PBL/HCV replicon bioassay. It is filed as cell-based. The settings on record: read-out: EC50 (nM) (n = no. of experiments). An excerpt: EMCV: Encephalomyocarditis virus IRES: Internal ribosmomal entry site Huh: Huh-7 human hepatoma cell line 7 (parental cells used to generate HCV replicon cell lines) IUC: luciferase ubi: ubiquitin neo: neomycin ET: glutamic acid, threonine (cell culture adaptive mutations in the replicon used in the assay) RPMI-FCS: Roswell Park Memorial Institute (cell culture medium for PBL)—Foetal Calf Serum PBL: peripheral blood lymphocytes
PBL contain as a subpopulation plasmacytoid dendritic cells which are the natural interferon producing cells during an infection and as such are an excellent model in which to profile interferon inducers. As an extremely sensitive antiviral bioassay, supernatant taken from PBL is assayed for antiviral activity in the HCV replicon system.
The HCV replicon (Huh-5-2[l389 luc-ubi-neo-NS3-3′/ET]) is an in vitro model of HCV replication in which the luciferase reporter is incorporated into HCV sequences and stably maintained in the human hepatoma cell line Huh-7. The firefly luciferase reporter is expressed as a luciferase-ubiquitin-neomycin phosphotransferase fusion protein which is cleaved by host proteases to release luciferase. […] Firefly luciferase activity is detected using a Bright-Glo™ Luciferase Assay System manufactured by Promega. […]
On the technique in general: Replicon systems follow genome replication, usually without infectious particles.

Test [1] deals with HCV replicon containing cells. Briefly: Direct response of HCV replicon containing cells to TLR agonists. It is filed as cell-based, human. The settings on record: compound applied directly to replicon cells, not via PBL conditioned medium.

From patent US20120302598A1, “IMIDAZOPYRIDINONES” (PFIZER LIMITED, priority 2007, published 2012) come the findings set out here.

The structures appear in SMILES notation. Where “and” joins values, the source holds several entries; their conditions need not be identical. Equal entries are not always repeated.

One may read the EC50 as the concentration giving half of the maximal effect. Regarding `Cc1ccc(Cn2c(=O)[nH]c3c(N)nc(OCC4CCCO4)cc32)cn1` (stereo not drawn) [Example 5, 4-Amino-1-(6-methyl-pyridin-3-ylmethyl)-6-(tetrahydro-furan-2-R/S-ylmethoxy)-1,3-dihydro-imidazo[4,5-c]pyridin-2-one], at TLR7, the EC50 was 698 nM and 1240 nM and 1160 nM and 3700 nM and 475 nM and 1430 nM and 1040 nM and 583 nM and 1010 nM and 737 nM.
Same read-out and setting: as for `Cc1ccc(Cn2c(=O)[nH]c3c(N)nc(OC[C@H]4CCCO4)cc32)cn1` [Example 6, 4-Amino-1-(6-methyl-pyridin-3-ylmethyl)-6-(tetrahydro-furan-2-R-ylmethoxy)-1,3-dihydro-imidazo[4,5-c]pyridin-2-one], the figure is > 4000 nM and 1920 nM and 1000 nM and 1450 nM and 1940 nM and 1470 nM and 1250 nM and 1580 nM.
As for `CC(C)Cn1cnc2c(N)nc3ccccc3c21` [Imiquimod], in test [1], the “direct response of HCV replicon containing cells to the TLR agonist” value is on record as “do not respond directly”.
